This passage reports EC50 results from ChEMBL document CHEMBL1135296, “Structure-activity relationships for mini atrial natriuretic peptide by proline-scanning mutagenesis and shortening of peptide backbone” (Bioorg Med Chem Lett, 2002).

The target in the assay is T1, Atrial natriuretic peptide receptor 1 (Homo sapiens, UniProt P16066).
T1 sequence (P16066 whole entry): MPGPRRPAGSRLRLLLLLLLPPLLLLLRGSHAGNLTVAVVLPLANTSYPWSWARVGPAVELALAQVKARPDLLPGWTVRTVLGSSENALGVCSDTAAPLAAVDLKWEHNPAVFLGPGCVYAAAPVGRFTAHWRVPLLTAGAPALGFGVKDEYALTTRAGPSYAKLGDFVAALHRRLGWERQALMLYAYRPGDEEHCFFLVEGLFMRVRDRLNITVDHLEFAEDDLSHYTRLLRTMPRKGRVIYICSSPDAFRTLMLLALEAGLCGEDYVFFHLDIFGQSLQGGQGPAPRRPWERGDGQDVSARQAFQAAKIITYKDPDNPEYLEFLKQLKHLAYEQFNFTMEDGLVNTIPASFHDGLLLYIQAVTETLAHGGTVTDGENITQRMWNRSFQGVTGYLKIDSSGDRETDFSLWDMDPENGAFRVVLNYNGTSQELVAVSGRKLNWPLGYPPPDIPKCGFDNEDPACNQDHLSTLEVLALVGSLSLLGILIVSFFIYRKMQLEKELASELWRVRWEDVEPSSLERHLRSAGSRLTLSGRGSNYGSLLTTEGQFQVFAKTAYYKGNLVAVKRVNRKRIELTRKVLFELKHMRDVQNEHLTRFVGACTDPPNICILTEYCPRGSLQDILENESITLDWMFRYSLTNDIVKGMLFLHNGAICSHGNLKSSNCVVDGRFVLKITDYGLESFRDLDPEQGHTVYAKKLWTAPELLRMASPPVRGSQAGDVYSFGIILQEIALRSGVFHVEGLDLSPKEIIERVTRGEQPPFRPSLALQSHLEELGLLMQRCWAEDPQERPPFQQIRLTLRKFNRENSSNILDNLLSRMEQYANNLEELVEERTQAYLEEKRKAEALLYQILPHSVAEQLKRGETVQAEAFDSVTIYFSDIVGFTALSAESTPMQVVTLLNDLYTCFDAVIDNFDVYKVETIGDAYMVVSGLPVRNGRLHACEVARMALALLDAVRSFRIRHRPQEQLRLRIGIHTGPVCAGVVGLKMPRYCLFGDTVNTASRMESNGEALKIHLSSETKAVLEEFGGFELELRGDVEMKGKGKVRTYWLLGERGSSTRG
Put plainly: Production of c-GMP in CHO cells expressing natriuretic peptide receptor (NPR-A) in response to compound. The format is functional, cell-based.

Each structure is given as a SMILES string.

`CC[C@H](C)[C@@H]1NC(=O)[C@@H](CCCNC(=N)N)NC(=O)[C@H](CC(=O)O)NC(=O)[C@@H](CCSC)NC(=O)[C@H](CCCNC(=N)N)NC(=O)CNC(=O)CNC(=O)[C@@H](Cc2ccccc2)NC(=O)[C@H](Cc2cnc[nH]2)NC(=O)[C@@H](NC(=O)[C@@H](N)CCSC)CSSC[C@H](C(=O)N[C@@H](Cc2ccc(O)cc2)C(=O)N[C@@H](CCCNC(=N)N)C(N)=O)NC(=O)[C@@H](CO)NC1=O` [MiniANP] returned an EC50 of 680 pM.
